# Reference: patent publication US20230069886A1, “AROMATIC SULPHONAMIDES DERIVATIVES THAT INHIBITS PDI A3, THEIR SYNTHESIS AND USE” (Uniwersytet Jagiellonski, priority 2020, published 2023)
# Read-outs that look alike come from different tables or passages of the source.
# Legend:
# [1] = tested on: arterial thrombosis; assay: In vivo models of arterial thrombosis; design: species or system rat or mice; details: FIG. 5
# Procedure: To confirm antithrombotic activity of compounds of invention, inhibitors of PDIA3, pharmacological activity of selected compounds was tested in vivo in the rat or mice model of arterial thrombosis. Wistar rats were anaesthetized with pentobarbital (40 mg/kg, i.p.) and placed in a supine position on a heated (37° C.) operating table. Arterial thrombosis was induced by electrical stimulation of the right common carotid artery, as previously described (Kramkowski et al., 2012). Briefly, the anode, a stainless steel L-shaped wire, was inserted under the artery and connected to a constant current generator. The cathode was attached subcutaneously to the hind limb. The artery was stimulated (1 mA) for 10 min. Fifty-five minutes after the beginning of stimulation, the segment of the common carotid artery containing the formed thrombus was dissected and opened lengthwise, and the thrombus was completely removed and air-dried at room temperature for 24 h. Thrombus was then weighed in a blinded manner. Antithrombotic effects of compounds of invention in mice was analyzed using intravital fluorescence confocal microscopy as described previously (Hayashi T et al., 2008). […] Changes in fluorescence intensity were measured as described previously (Hayashi T et al., 2008, Kramkowski et al., 2002)
# [2] = tested on: MCF-10A; assay: Selectivity index MCF-10A versus MCF-7; format: cell-based; details: 72 hours exposition
# Procedure: (§1) Anticancer activity of selected compounds of invention, PDI A3-inhibitors has been also tested in vitro in antiproliferative assay in normoxic and hypoxic conditions as well in estrogen-stimulated cancer cells. In the experiment, cells were seeded on 96-well plates (Sarstedt, Germany) in appropriate culture medium at a density of 10^5 cells/mL 24 h before adding the tested compounds. Cells were treated with each compound in four concentrations in the range 0.1-100 μg/mL. […] After 72 h of compound treatment at 37° C., 5% CO2 humid atmosphere and in wo different oxygen level conditions: 21%—normal and <1%—hypoxia. In some experiments the MDA-MB-231 and MCF-7 cells were seeded with or without 200 nM estradiol and after 24 h the tested compounds were added. A previously described sulforhodamine B antiproliferative assay was used with minor modifications (Skehan P et al., 1990). Briefly, cells were fixed with 50 μL/well of 50% (w/v) trichloroacetic acid (Avantor Performance Materials, Gliwice, Poland). After 1 h incubation, plates were washed several times with tap water and 50 μL of 0.4% (w/v) solution of sulforhodamine B (Sigma-Aldrich, Germany) in 1% (v/v) acetic acid (Avantor Performance Materials, Gliwice, Poland) was added to each well. After 30 min incubation at room temperature, unbound dye was washed out with 1% (v/v) acetic acid, whereas bound dye was solubilized with 10 mM unbuffered TRIS (Avantor Performance Materials, Gliwice, Poland) solution. The entire procedure was performed using a BioTek EL-406 washing station (BioTek Instruments, USA). After additional 30 min, absorbance was read using a Biotek Hybrid H4 reader (BioTek Instruments, USA) at 540 nm wavelength. MTT assay was used alternatively for HL-60 cell line and in the experiment in which estrogens are added (specified in the table legend). Absorbance was measured using a Biotek Hybrid H4 reader at 570 nm wavelength for MTT assay.
# Compounds at each concentration were tested in triplicate in a single experiment and each experiment was repeated at least three times independently. […]
# [3] = tested on: MDA-MB-231; assay: MTT antiproliferative assay, 72 h, with or without estradiol, MDA-MB-231; format: cell-based, human; details: for IC50: Homo sapiens, MDA-MB-231, 72 hours exposition, MTT; for Sensitivity of MDA-MB-231 line after treatment with estradiol: estradiol (200 nM), Table 4
# Procedure: as §1
# (§2) Compounds at each concentration were tested in triplicate in a single experiment and each experiment was repeated at least three times independently. Results are presented as mean IC50±SD.
# [4] = tested on: HT-29; assay: MTT antiproliferative assay, 72 h, HT-29; format: cell-based, human; details: Homo sapiens, HT-29, 72 hours exposition, read-out: IC50 [μg/ml] HT-29 normal
# Procedure: as §1, with “A previously described sulforhodamine B antiproliferative assay was used with minor modifications (Skehan P et al., 1990).” left out, “MTT assay was used alternatively for HL-60 cell line and in the experiment in which estrogens are added (specified in the table legend).” left out
# as §2
# [5] = tested on: MCF-7; assay: MTT antiproliferative assay, 72 h, with or without estradiol, MCF-7; format: cell-based, human; details: for IC50: Homo sapiens, MCF7, 72 hours exposition, MTT; for Lower sensitivity after treatment with estradiol in MCF-7: estradiol (200 nM), Table 4
# Procedure: as §1, §2
# [6] = tested on: HL-60; assay: MTT antiproliferative assay, 72 h, HL-60; format: cell-based, human; details: Homo sapiens, HL-60, 72 hours exposition, read-out: IC50 [μg/ml] HL-60 normal
# Procedure: as §1, §2
# [7] = tested on: human platelets; assay: Light transmission aggregometry of collagen-stimulated human platelet-rich plasma; format: cell-based; details: human PRP, FIG. 2, 3
# Procedure: Anti-platelet activity of compounds of invention was assessed using light transmission aggregometry assay of human platelet-rich plasma (PRP). Venous blood was obtained from male volunteers at the University Hospital Blood Bank Centre. Volunteer donors had not taken any medicines for the preceding two weeks. Blood was collected into vials containing sodium citrate (3.2%, 9:1 v/v) as an anti-coagulant agent. To obtain platelet rich plasma (PRP), blood was centrifuged at 260×g for 15 min. The platelet […] plasma fraction (used as a blank sample) was obtained by centrifugation of the remaining blood for 10 min at 2600×g. Aggregation of blood platelets was assessed in PRP with a dual channel Chronolog aggregometer (CHRONO-LOG) using a method previously described by Born^35. PRP (500 μl) was equilibrated for 2 min at 37° C. with a continuous stirring at 800 rpm and then stimulated with collagen to cause aggregation. At the beginning of each experiment, concentrations of collagen that induced sub-maximum aggregation response were determined. These concentrations were in the range of […], respectively. All the tested compounds were added 2 min prior to stimulation of platelets with collagen. Transmittance was read 6 min after stimulation of platelets with an agonist. […]
# [8] = tested on: MDA-MB-231 cell transmigration across IL-1β-stimulated hLMVECs; assay: Transendothelial migration of MDA-MB-231 cells across hLMVEC monolayer; format: cell-based, human; details: IL-1β 10 ng/mL (6 hours)-stimulated hLMVECs, 24 h co-culture, FIG. 6
# Procedure: To assess whether compounds of invention, PDI A3-inhibitors are also effective as inhibitors of cancer cell transmigration through endothelium the transmigration assay with MDA-MB-231/lung microvascular endothelium was used as described previously (Stojak et al., 2018). Cell migration was assayed in 24-well, 6.5-mm internal-diameter Transwell plates (8.0 μm pore size; BD Pharmingen). Human lung microvascular endothelial cells (hLMVECs) were seeded into 24-well plates (seeding density 5×10^4 cells/insert) on the upper side of the filter and left to grow to confluence. After confluent monolayer formation, hLMVECs were pre-treated with 10 ng/mL IL-1β for 6 h. Prior to use in transmigration assay, cancer cells were pre-incubated with various concentrations (3, 10, 30, 50, 100 μM) of tested inhibitors of PDIA3, C-3390, C-3399 for 30 min. Then, MDA-MB-231 cells (each 5×10^4 per well) were placed into upper chambers and tested PDI inhibitors at various concentrations (1, 10, 30, 50, 100 μM) were given. Lower chambers were filled with medium containing chemoattractant (20% FBS or 100 ng/mL SDF-1α). After 24 h of co-culture, hLMVEC monolayers and non-migrating cancer cells on the upper surface of the membrane were removed. […] The cell number was determined by measuring the fluorescence using plate reader. […]
# [9] = not pretreated with estradiol, read-out: IC50 [μg/ml] MDA-MB-231 normal
# [10] = pretreated with 200 nM estradiol, read-out: IC50 [μg/ml] MDA-MB-231 +estradiol
# [11] = not pretreated with estradiol, read-out: IC50 [μg/ml] MCF-7 normal
# [12] = pretreated with 200 nM estradiol, read-out: IC50 [μg/ml] MCF-7 +estradiol
compound,measurement,setting,value
"COC(=O)C1CN1S(=O)(=O)c1ccc(N(C)C)cc1 (stereo not drawn) [Compound C-3343, Methyl 1-[4-(dimethylamino)phenyl]sulfonylaziridine-2-carboxylate]",Anti-thrombotic effects in vivo,[1],anti-thrombotic effects
"COC(=O)C1CN1S(=O)(=O)c1cccc2cc(N(C)C)ccc12 (stereo not drawn) [Compound C-3375, Methyl 1-[[6-(dimethylamino)-1-naphthyl]sulfonyl]aziridine-2-carboxylate]",Selectivity index (SI): IC50 of MCF-10A/IC50 of MCF-7,[2],6.90
same,IC50,[3]; [9],3.8 ± 0.1 µg/mL
same,IC50,[3]; [10],7 ± 1.1 µg/mL
same,Sensitivity of MDA-MB-231 line after treatment with estradiol,[3],slightly lower sensitivity
same,IC50,[4],27.8 ± 7.5 µg/mL
same,IC50,[5]; [11],3.5 ± 0.4 µg/mL
same,IC50,[5]; [12],3.4 ± 0.3 µg/mL
same,Lower sensitivity after treatment with estradiol in MCF-7,[5],not observed
same,IC50,[6],3.3 ± 0.2 µg/mL
"COC(=O)C1CN1S(=O)(=O)c1ccc2c(N(C)C)cccc2c1 (stereo not drawn) [Compound C-3399, Methyl 1-[[5-(dimethylamino)-2-naphthyl]sulfonyl]aziridine-2-carboxylate]",Inhibition of platelet aggregation,[7],lowest EC50
same,Selectivity index (SI): IC50 of MCF-10A/IC50 of MCF-7,[2],1.6
same,IC50,[3]; [9],2.9 ± 0.3 µg/mL
same,IC50,[3]; [10],6.4 ± 1.9 µg/mL
same,Sensitivity of MDA-MB-231 line after treatment with estradiol,[3],slightly lower sensitivity
same,Inhibition of MDA-MB-231 cell transmigration,[8],inhibited MDA-MB-231 cell transmigration
same,IC50,[4],4.3 ± 0.2 µg/mL
same,IC50,[5]; [11],3.7 ± 0.3 µg/mL
same,IC50,[5]; [12],4.3 ± 0.3 µg/mL
same,Lower sensitivity after treatment with estradiol in MCF-7,[5],not observed
same,IC50,[6],2.4 ± 0.3 µg/mL
